Patent publication US8197860B2, “Method for enhancing nutrient absorption with astragalosides” (Nuliv Holding Inc., priority 2005, dated 2012)

Assays:
Assay type in all cases: cell-based, human
Caco-2 cell monolayer [1] = experiment: Tryptophan absorption assay (transport across Caco-2 cell monolayer); set-up: key to * (regulatory effect on tryptophan transport): ↑: the arrows that point up represent the enhancing effect on the tryptophan transport
Outline: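 Differentiated Caco-2 monolayers on transwell filters were preincubated for 1 h at 37 °C in choline chloride-based buffer at pH 7.4. Transport began when apical tryptophan was added. Basolateral samples taken over time were counted, corrected for nonspecific flux using [3H]-mannitol, and expressed as nmol/min.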

Caco2 cells [2] = experiment: Glucose uptake assay; set-up: key to * (regulatory effect on glucose uptake): ↑: the arrows that point up represent the enhancing effect on the glucose uptake; settings: for Uptake rate (glucose): 48 hours, 25 mM glucose
Procedure: To evaluate the effect of the isolated astragaloside compound on the uptake of nutrient substances across the intestinal lumen, Caco-2 cells were grown on permeable filter as an experimental model. Caco2 cells originate from human colonic adenocarcinoma and spontaneously differentiate into an enterocyte-like phenotype after two weeks. The Caco-2 cell line, derived from a human colorectal carcinoma, has been used as an in vitro model system for studying drug absorption in gastrointestinal tract. These cells form monolayers with well-developed tight-junctions, and have been evaluated in details as an in vitro model to study both transcellular transport of nutrients and drugs in intestinal lumen.
Caco-2 cells were obtained from the ATCC (American Type Culture Collection). The cells were maintained in Dulbecco's modified Eagle medium (DMEM) containing 4.5 g/L glucose and 25 mM Hepes, supplemented with 10% fetal calf serum, 100 U/mL penicillin G and […]. The medium was changed every second day. The cells were routinely checked for Mycoplasma in monthly intervals. Caco-2 cells were cultured on semi-permeable membranes to differentiate into a highly functionalized epithelial barrier with remarkable morphological and biochemical similarity to the small intestinal columnar epithelium. The Caco-2 cell monolayers could therefore be used to study the membrane transport properties of many compounds. To trypsinize the cells, the culture dish was washed once with phosphate-buffered saline (PBS) followed by adding trypsine-EDTA for 10 minutes. The trypsinized cells were separated and filtered into single cells using a 35-μm strainer cap (Falcon 2235) before being seeded for further experiments.
Caco-2 cells (5×10^4) were seeded in a 48-well plate and maintained in culture medium (DMEM with 10% FBS, 1% nonessential amino acids, L-glutamine, penicillin G (100 U/mL), streptomycin (10 μg/mL), and amphotericin B (2.5 μg/mL) in a 37° C. incubator for 10 days for the cells to differentiate. The culture medium was changed once every two days. The cells were then washed with PBS before replenishing with the culture medium containing 5% FBS and various astragalosides at the indicated concentrations (0.01, 0.1 and 1 μM) for 48 hours. The Caco2 cells were washed out of remaining glucose with PBS and replaced in the glucose buffer (80 mM NaCl, 100 mM mannitol, 20 mM Tris-HCl, pH 7.4, 3 mM K2HPO4, 1 mM CaCl2, 1 mg/mL BSA) for 1 hour. Glucose uptake was initiated by replacing the glucose buffer with 0.2 ml of glucose buffer containing 2 μCi/mL of ^14C-glucose and unlabeled cold glucose to give a final glucose concentration of 25 mM. Glucose uptake was stopped by removing the glucose buffer and washing with PBS at designated time intervals. The cells were lysed in 0.2 mL of 0.2 N NaOH, and 20 μL of the cell lysate were transferred to the filter-bottomed UniFilter plates (Perkin-Elmer, Wellesley, Mass., USA) and dried in a vacuum oven at 37° C. The bottom of the UniFilter plate was sealed and 25 μL of the counting solution were added into each well. Adhesive plate sealers were used in place of the lids and radioactivity of each sample was counted using the microplate liquid scintillation counter (TopCount, Packard NXT, Packard BioScience Company, Meriden, Conn., USA). The amount of glucose accumulated in the cells was calculated and normalized to protein concentration, and uptake rate was expressed as nanomoles of glucose per minutes per milligram of cell protein (nmol/min/mg). Protein concentration was determined by a standard Bicinchoninic acid (BCA) protein assay. Nonspecific glucose uptake was measured by adding 2 μCi of L-[^14C]-glucose and subtracting from each determination to obtain specific glucose uptake.

Caco2 cells [3] = experiment: Folate uptake assay; set-up: key to * (regulatory effect on folate uptake): ↑: the arrows that point up represent the enhancing effect on folate uptake; settings: compound 0.1 μM
Outline: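 Caco-2 cells differentiated 10 days, then pretreated 2 days with 0.1 μM isolated astragalosides in 5% FBS medium. Preincubated 1 h in HBSS-based folate uptake buffer pH 6.0; uptake started with 2 μCi/mL ³H-folic acid plus unlabeled folate.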

Caco-2 cell monolayer [4] = experiment: Arginine absorption assay (transport across Caco-2 cell monolayer); set-up: key to * (regulatory effect on arginine transport): ↑: the arrows that point up represent the enhancing effect on the arginine transport; settings: for Transport rate (arginine): 10 mM L-arginine apical
Outline: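 Differentiated Caco-2 monolayers on transwells, preincubated 1 h at 37° C in pH 7.4 Hepes-buffered saline with glucose. Apical 10 mM L-arginine spiked with L-[3H]-arginine; basolateral radioactivity sampled over time. Transport corrected by [3H]-mannitol, expressed as nmol/min.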

SMILES: CC(=O)O[C@@H]1[C@@H](O)[C@H](O[C@H]2CC[C@]34C[C@]35CC[C@]3(C)[C@@H]([C@@]6(C)CC[C@@H](C(C)(C)O)O6)[C@@H](O)C[C@@]3(C)[C@@H]5C[C@H](O[C@@H]3O[C@H](CO)[C@@H](O)[C@H](O)[C@H]3O)[C@H]4C2(C)C)OC[C@H]1O [IsoAS2, isoastragaloside II]
- Regulatory effects on the tryptophan transport across the Caco2 cell monolayer (Caco-2 cell monolayer [1]; Table 4 summary): had regulatory effects on the tryptophan transport
- * (regulatory effect on tryptophan transport) (Caco-2 cell monolayer [1]; compound 0.01 μM): ↑
- Percentage (tryptophan transport, control = 100) (Caco-2 cell monolayer [1]; compound 0.01 μM): 145.38%
- Transport rate (tryptophan) (Caco-2 cell monolayer [1]; compound 0.01 μM): 13.000 ± 0.5547 nmol/min
- * (regulatory effect on tryptophan transport) (Caco-2 cell monolayer [1]; compound 0.1 μM): ↑
- Percentage (tryptophan transport, control = 100) (Caco-2 cell monolayer [1]; compound 0.1 μM): 146.05%
- Transport rate (tryptophan) (Caco-2 cell monolayer [1]; compound 0.1 μM): 13.060 ± 0.5530 nmol/min
- * (regulatory effect on tryptophan transport) (Caco-2 cell monolayer [1]; compound 1 μM): ↑
- Percentage (tryptophan transport, control = 100) (Caco-2 cell monolayer [1]; compound 1 μM): 224.45%
- Transport rate (tryptophan) (Caco-2 cell monolayer [1]; compound 1 μM): 20.070 ± 0.1931 nmol/min
- Tryptophan transport rate (Caco-2 cell monolayer [1]; concentration from 0.01 μM to 1 mM): increased
- Regulatory effects on the glucose uptake of the Caco2 cells (Caco2 cells [2]; Table 2 summary): had regulatory effects on the glucose uptake
- * (regulatory effect on glucose uptake) (Caco2 cells [2]; compound 0.01 μM): ↑
- Percentage (glucose uptake, control = 100) (Caco2 cells [2]; compound 0.01 μM): 115.69%
- Uptake rate (glucose) (Caco2 cells [2]; compound 0.01 μM): 7.3720 ± 2.5700 nmol/mg/min
- * (regulatory effect on glucose uptake) (Caco2 cells [2]; compound 0.1 μM): ↑
- Percentage (glucose uptake, control = 100) (Caco2 cells [2]; compound 0.1 μM): 107.05%
- Uptake rate (glucose) (Caco2 cells [2]; compound 0.1 μM): 6.8210 ± 1.6630 nmol/mg/min
- Percentage (glucose uptake, control = 100) (Caco2 cells [2]; compound 1 μM): 96.55%
- Uptake rate (glucose) (Caco2 cells [2]; compound 1 μM): 6.1520 ± 2.4610 nmol/mg/min
- * (regulatory effect on folate uptake) (Caco2 cells [3]): ↑
- Percentage (folate uptake vs own control) (Caco2 cells [3]): 162.87%
- Uptake rate (folate) (Caco2 cells [3]; 2 days, 5 μM folate, pH 6.0): 86.63 ± 2.82 pmol/mg/min
- Regulatory effects on the arginine transport across the Caco2 cell monolayer (Caco-2 cell monolayer [4]; Table 3 summary): had regulatory effects on the arginine transport
- * (regulatory effect on arginine transport) (Caco-2 cell monolayer [4]; compound 0.01 μM): ↑
- Percentage (arginine transport, control = 100) (Caco-2 cell monolayer [4]; compound 0.01 μM): 138.11%
- Transport rate (arginine) (Caco-2 cell monolayer [4]; compound 0.01 μM): 14.7577 ± 0.2837 nmol/min
- * (regulatory effect on arginine transport) (Caco-2 cell monolayer [4]; compound 0.1 μM): ↑
- Percentage (arginine transport, control = 100) (Caco-2 cell monolayer [4]; compound 0.1 μM): 132.01%
- Transport rate (arginine) (Caco-2 cell monolayer [4]; compound 0.1 μM): 14.1059 ± 0.1815 nmol/min
- * (regulatory effect on arginine transport) (Caco-2 cell monolayer [4]; compound 1 μM): ↑
- Percentage (arginine transport, control = 100) (Caco-2 cell monolayer [4]; compound 1 μM): 118.40%
- Transport rate (arginine) (Caco-2 cell monolayer [4]; compound 1 μM): 12.6518 ± 0.3680 nmol/min
- Arginine transport rate (Caco-2 cell monolayer [4]; concentration from 0.01 μM to 1 μM): increased
